# Results as given in ChEMBL document CHEMBL5046255, “Design and synthesis of dual inhibitors targeting snail and histone deacetylase for the treatment of solid tumour cancer” (Eur J Med Chem, 2022).
# Activity calls are given as the source filed them. The rule behind the calls is not given here.
# Columns and labels:
# HCT-116 [1] = assay: Antiproliferative activity against human HCT-116 cells assessed as cell viability at 1 uM incubated for 72 hrs by luminescence assay; type: functional, cell-based; conditions: HCT-116, 72 h
# CCRF-CEM = assay: Antiproliferative activity against human CCRF-CEM cells assessed as growth inhibition incubated for 72 hrs by luminescence assay; type: functional
# HL-60 = assay: Antiproliferative activity against human HL-60 cells assessed as growth inhibition incubated for 72 hrs by luminescence assay; type: functional
# A549 = assay: Antiproliferative activity against human A549 cells assessed as growth inhibition incubated for 72 hrs by luminescence assay; type: functional
# EKVX = assay: Antiproliferative activity against human EKVX cells assessed as growth inhibition incubated for 72 hrs by luminescence assay; type: functional
# HOP-62 = assay: Antiproliferative activity against human HOP-62 cells assessed as growth inhibition incubated for 72 hrs by luminescence assay; type: functional
# HOP-92 = assay: Antiproliferative activity against human HOP-92 cells assessed as growth inhibition incubated for 72 hrs by luminescence assay; type: functional
# NCI-H226 = assay: Antiproliferative activity against human NCI-H226 cells assessed as growth inhibition incubated for 72 hrs by luminescence assay; type: functional
# NCI-H23 = assay: Antiproliferative activity against human NCI-H23 cells assessed as growth inhibition incubated for 72 hrs by luminescence assay; type: functional
# NCI-H460 = assay: Antiproliferative activity against human NCI-H460 cells assessed as growth inhibition incubated for 72 hrs by luminescence assay; type: functional
# NCI-H522 = assay: Antiproliferative activity against human NCI-H522 cells assessed as growth inhibition incubated for 72 hrs by luminescence assay; type: functional
# COLO 205 = assay: Antiproliferative activity against human COLO 205 cells assessed as growth inhibition incubated for 72 hrs by luminescence assay; type: functional
# HCT-116 [2] = assay: Antiproliferative activity against human HCT-116 cells assessed as growth inhibition incubated for 72 hrs by luminescence assay; type: functional
# HCT-15 = assay: Antiproliferative activity against human HCT-15 cells assessed as growth inhibition incubated for 72 hrs by luminescence assay; type: functional
# HT-29 = assay: Antiproliferative activity against human HT-29 cells assessed as growth inhibition incubated for 72 hrs by luminescence assay; type: functional
# SW-620 = assay: Antiproliferative activity against human SW-620 cells assessed as growth inhibition incubated for 72 hrs by luminescence assay; type: functional
# SF-268 = assay: Antiproliferative activity against human SF-268 cells assessed as growth inhibition incubated for 72 hrs by luminescence assay; type: functional
# SF-295 = assay: Antiproliferative activity against human SF-295 cells assessed as growth inhibition incubated for 72 hrs by luminescence assay; type: functional
# SNB-75 = assay: Antiproliferative activity against human SNB-75 cells assessed as growth inhibition incubated for 72 hrs by luminescence assay; type: functional
# PC-3 = assay: Antiproliferative activity against human PC-3 cells assessed as growth inhibition incubated for 72 hrs by luminescence assay; type: functional
# LOX IMVI = assay: Antiproliferative activity against human LOX IMVI cells assessed as growth inhibition incubated for 72 hrs by luminescence assay; type: functional
# SK-MEL-5 = assay: Antiproliferative activity against human SK-MEL-5 cells assessed as growth inhibition incubated for 72 hrs by luminescence assay; type: functional
# SK-MEL-28 = assay: Antiproliferative activity against human SK-MEL-28 cells assessed as growth inhibition incubated for 72 hrs by luminescence assay; type: functional
# UACC-257 = assay: Antiproliferative activity against human UACC-257 cells assessed as growth inhibition incubated for 72 hrs by luminescence assay; type: functional
# UACC-62 = assay: Antiproliferative activity against human UACC-62 cells assessed as growth inhibition incubated for 72 hrs by luminescence assay; type: functional
# IGROV-1 = assay: Antiproliferative activity against human IGROV-1 cells assessed as growth inhibition incubated for 72 hrs by luminescence assay; type: functional
# OVCAR-8 = assay: Antiproliferative activity against human OVCAR-8 cells assessed as growth inhibition incubated for 72 hrs by luminescence assay; type: functional
# 786-0 = assay: Antiproliferative activity against human 786-0 cells assessed as growth inhibition incubated for 72 hrs by luminescence assay; type: functional
# SN12C = assay: Antiproliferative activity against human SN12C cells assessed as growth inhibition incubated for 72 hrs by luminescence assay; type: functional
# UO-31 = assay: Antiproliferative activity against human UO-31 cells assessed as growth inhibition incubated for 72 hrs by luminescence assay; type: functional
# Histone deacetylase 8 = Histone deacetylase 8 (Homo sapiens, UniProt Q9BY41); assay: Inhibition of HDAC8 (unknown origin) using p53 (379 to 382 residues) (RHKK(Ac-AMC) as fluorogenic substrate incubated for 2 hrs by fluorescence based assay
# [3] = biological target: Histone deacetylase (Homo sapiens) (UniProt Q13547+O15379+Q9UBN7+Q92769+Q9UQL6+Q8WUI4+Q9BY41+Q96DB2+P56524+Q9UKV0+Q969S8); assay: Inhibition of HDAC in human HCT-116 cells assessed as increase in Ac-H4 expression at 50 nM measured after 24 hrs by western blot analysis; type: cell-based
# HCT-116 [4] = assay: Effect on SNAI1 protein expression in human HCT-116 cells at 75 nM measured after 24 hrs by western blot analysis; type: functional, cell-based
# [5] = Metabolic stability in human liver microsomes assessed as half life incubated for 10 mins by LC-MS/MS analysis; type: ADME, Microsome
# [6] = Metabolic stability in dog liver microsomes assessed as half life incubated for 10 mins by LC-MS/MS analysis; type: ADME, Canis lupus familiaris, Microsome
# [7] = Metabolic stability in dog liver microsomes assessed as intrinsic clearance incubated for 10 mins by LC-MS/MS analysis; type: ADME, Canis lupus familiaris, Microsome; conditions: read-out: CLH
# [8] = Metabolic stability in human plasma assessed as half life at 100 uM measured upto 120 mins by LC-MS/MS analysis; type: ADME, cell-free
# [9] = Metabolic stability in dog plasma assessed as half life at 100 uM measured upto 120 mins by LC-MS/MS analysis; type: ADME, cell-free, Canis lupus familiaris
# [10] = Metabolic stability in rat plasma assessed as half life at 100 uM measured upto 120 mins by LC-MS/MS analysis; type: ADME, cell-free
# [11] = Metabolic stability in human plasma assessed as parent compound remaining at 100 uM measured after 2 hrs by LC-MS/MS analysis; type: ADME, cell-free; conditions: read-out: Stability
# [12] = Metabolic stability in rat plasma assessed as parent compound remaining at 100 uM measured after 2 hrs by LC-MS/MS analysis; type: ADME, cell-free; conditions: read-out: Stability
# [13] = Tmax in Sprague-Dawley rat at 10 mg/kg, po measured up to 24 hrs by LC-MS/MS analysis; type: ADME, organism-based; conditions: in vivo
# [14] = AUC (0 to t) in Sprague-Dawley rat at 1 mg/kg, iv measured up to 24 hrs by LC-MS/MS analysis; type: ADME, organism-based; set-up: route intravenous, dose 1 mg/kg, time <=24; conditions: in vivo
# [15] = AUC (0 to t) in Sprague-Dawley rat at 10 mg/kg, po measured up to 24 hrs by LC-MS/MS analysis; type: ADME, organism-based; set-up: route oral, dose 10 mg/kg, time <=24; conditions: in vivo
# [16] = Half life in Sprague-Dawley rat at 1 mg/kg, iv measured up to 24 hrs by LC-MS/MS analysis; type: ADME, organism-based; conditions: in vivo
# [17] = Oral bioavailability in Sprague-Dawley rat at 10 mg/kg measured up to 24 hrs by LC-MS/MS analysis; type: ADME, organism-based; conditions: in vivo
# Histone deacetylase 8, sequence (Q9BY41 whole entry, the tested form may be a part): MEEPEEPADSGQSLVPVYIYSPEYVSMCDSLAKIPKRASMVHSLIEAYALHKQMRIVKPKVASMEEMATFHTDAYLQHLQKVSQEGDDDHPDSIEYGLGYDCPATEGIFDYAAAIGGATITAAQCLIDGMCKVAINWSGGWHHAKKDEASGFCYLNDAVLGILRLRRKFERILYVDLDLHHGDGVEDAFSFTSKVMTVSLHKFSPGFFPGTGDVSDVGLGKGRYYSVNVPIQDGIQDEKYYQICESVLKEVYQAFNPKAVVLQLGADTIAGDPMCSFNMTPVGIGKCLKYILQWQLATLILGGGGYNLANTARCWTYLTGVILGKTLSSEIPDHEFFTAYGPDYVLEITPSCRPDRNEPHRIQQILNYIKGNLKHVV
smiles,measurement,setting,value
Cc1cc(Nc2nc(SCc3ccc(C(=O)Nc4ccc(F)cc4N)cc3)nn3cccc23)n[nH]1,IC50,HCT-116 [1],75.1 nM
same,GI50,CCRF-CEM,411 nM
same,GI50,HL-60,268 nM
same,GI50,A549,886 nM
same,GI50,EKVX,919 nM
same,GI50,HOP-62,556 nM
same,GI50,HOP-92,3.68 µM
same,GI50,NCI-H226,2700 nM
same,GI50,NCI-H23,603 nM
same,GI50,NCI-H460,395 nM
same,GI50,NCI-H522,48.8 nM
same,GI50,COLO 205,296 nM
same,GI50,HCT-116 [2],494 nM
same,GI50,HCT-15,424 nM
same,GI50,HT-29,322 nM
same,GI50,SW-620,426 nM
same,GI50,SF-268,1120 nM
same,GI50,SF-295,354 nM
same,GI50,SNB-75,198 nM
same,GI50,PC-3,355 nM
same,GI50,LOX IMVI,665 nM
same,GI50,SK-MEL-5,334 nM
same,GI50,SK-MEL-28,2830 nM
same,GI50,UACC-257,3.69 µM
same,GI50,UACC-62,347 nM
same,GI50,IGROV-1,558 nM
same,GI50,OVCAR-8,483 nM
same,GI50,786-0,466 nM
same,GI50,SN12C,1250 nM
same,GI50,UO-31,1330 nM
same,IC50,Histone deacetylase 8,> 10 µM
same,Activity,[3],Active
same,Activity,HCT-116 [4],Active
same,half-life,[5],66.3 min
same,half-life,[6],52.1 min
same,microsomal CLint,[7],26.6 µL/min/mg
same,half-life at 100 µM,[8],337 min
same,half-life at 100 µM,[9],429 min
same,half-life at 100 µM,[10],515 min
same,"remaining at 2 h, 100 µM",[11],79.1%
same,"remaining at 2 h, 100 µM",[12],105%
same,Tmax,[13],4 h
same,AUCt,[14],715 ng·h/mL
same,AUCt,[15],52.1 ng·h/mL
same,t1/2,[16],18.2 min
same,F,[17],7.3%
